Here are results for one molecule from PMC7466040, “Sevanol and Its Analogues: Chemical Synthesis, Biological Effects and Molecular Docking” (Pharmaceuticals, 2020).

Experiment [1] concerns ICR male mice. The experiment in a line: CFA-induced paw oedema. The format is in vivo. The settings on record: p.o. only, not i.v. or i.n., 2, 4, 8 and 24 h.
Experiment [2] has as its system ICR male mice. The experiment in a line: Complete Freund's adjuvant-induced thermal hyperalgesia (hot plate). The experiment is classed as in vivo. Particulars: hot plate 53 °C. The protocol: (§1) Specific pathogen-free outbred ICR male mice (6 to 8 weeks old, weighing 29 to 33 g) were obtained from the Animal Breeding Facility of the Branch of the Shemyakin-Ovchinnikov Institute of Bioorganic Chemistry of the Russian Academy of Sciences (Pushchino). The animals were acclimatized for 2 weeks before the experimental procedures, and were kept in two-corridor barrier rooms under a controlled environment: a temperature of 20 to 24 °C, a relative humidity of 30% to 60%, and a 12 h light cycle. The animals were housed in Type 3 standard polycarbonate cages (820 cm2) on bedding (LIGNOCEL BK 8/15, JRS, Germany), with ad libitum access to feed (SSNIFF V1534-300, Spezialdiaeten, GmbH) and filtered tap water. The mouse cages were also supplied with material for environmental enrichment, i.e., Mouse House (Techniplast, Italy). Sevanol or the vehicle was administered intravenously, intranasally and orally (30 min before testing).
The development of the inflammation and thermal hyperalgesia of the paw was induced by the injection of the oil/saline (1:1) CFA emulsion into the dorsal surface of the hind paw of the mice (20 μL/paw) 24 h before the measurement. Saline (20 μL) was injected into the control mice. The inflamed paw withdrawal latencies to thermal stimulation were measured on a hot plate device (Hot Plate Analgesia Meter, Columbus Instruments) with a set temperature of 53 ± 0.1 °C and a cut-off time of 60 s.
(§2) Figure 5 The analgesic and anti-inflammatory effects of sevanol following intravenous, intranasal and per os administration. The effect of sevanol on the acetic acid induced writhing (A–C) and on the mice withdrawal latency on a hot plate in the thermal hyperalgesia test after CFA injection (D–F) upon intravenous (A,D), intranasal (B,E) and oral (C,F) administration. […] The results are presented as the mean ± SD (n = 6–10). The p-values of the sevanol groups vs. the saline group are based on an analysis of variance and on Tukey’s test; * p < 0.05, ** p < 0.005, *** p < 0.001.

Experiment [3] deals with ICR male mice. The experiment in a line: Abdominal constriction test of visceral pain (acetic acid-induced writhing). The format is in vivo. The protocol:
as §1
The mice were divided into separate groups, and sevanol or saline was administrated (30 min before testing) as described above. Acetic acid in saline (0.6%, 10 mL/kg) was injected intraperitoneally. The mice were moved into transparent glass cylinders, and the number of writhes was registered for 15 min.
as §2
(Writhing tests count abdominal constrictions after an irritant is injected.)

In a further experiment the test system is mice. On the set-up: method as in PMID 30545037. Particulars: parenteral, 0.01–10 mg/kg; cited from earlier work.

As for `O=C(O)CC(C(=O)O)C(OC(=O)C1=Cc2cc(O)c(O)cc2C(c2ccc(O)c(O)c2)C1C(=O)OC(C(=O)O)C(CC(=O)O)C(=O)O)C(=O)O` (stereo not drawn) [sevanol], the “paw oedema reduction” value in the experiment with ICR male mice [1] is “significant reduction in paw oedema”. Besides, in the experiment with ICR male mice [2] (intranasal), the “dose at which reversal of CFA-induced thermal hyperalgesia reached statistical significance, i.n.” value is listed as 1 mg/kg. Besides, in the experiment on ICR male mice [2] (intravenous), the “dose at which reversal of CFA-induced thermal hyperalgesia reached statistical significance, i.v.” value is listed as 1 mg/kg. Further, the “dose at which reversal of CFA-induced thermal hyperalgesia was statistically significant, p.o.” value with ICR male mice [2] (oral) came out at 0.1 mg/kg. Further, the “reduction of the number of writhes, i.n.” value with ICR male mice [3] (intranasal, 1 mg/kg) was “more than 50%”. Moreover, in the experiment on ICR male mice [3] (intranasal, 30 min before acetic acid), the “dose producing statistically significant reduction of writhes, i.n.” value is reported as “higher than 0.1 mg/kg”. Further, the “reduction of the number of writhes, i.v.” value in the experiment with ICR male mice [3] (intravenous, 1 mg/kg) was “more than 50%”. Further, the “dose producing statistically significant reduction of writhes, i.v.” value in the experiment on ICR male mice [3] (intravenous, 30 min before acetic acid) is “higher than 0.1 mg/kg”. Further, the “reduction of the number of writhes, p.o.” value with ICR male mice [3] (oral, 1 mg/kg) is “more than 50%”. In addition, the “dose from which effective in reducing writhes, p.o.” value with ICR male mice [3] (oral, 30 min before acetic acid) is listed as at least 0.01 mg/kg. Moreover, the “enhancement of analgesic and anti-inflammatory effect by oral administration versus other routes” value in the experiment on ICR male mice [3] (p.o. vs i.v./i.n., both tests) stood at 10 fold. For the same molecule, the “effect on CFA-induced thermal hyperalgesia” value with mice is on record as “significantly reversed”.
